Key:
[1] = tested on: retinal ganglion cells (RGCs); assay: Optic nerve crush injury after immunization with MOG p35-55, retrograde labeling of RGCs; type: in vivo, rat; conditions: 50 μg/animal with IFA intradermally in footpads ten days prior to crush; two weeks after injury
Description: FIG. 10 is a graph illustrating inhibition of secondary degeneration after optic nerve crush injury in adult rats. See text, Example 3, for experimental details. Rats were injected intradermally through the footpads with a 21-mer peptide based on MOG amino acid residues 35-55 (MOG p35-55) (([…], chemically synthesized at the Weizmann Institute of Science, Rehovot, Israel) or PBS ten days prior to optic nerve crush injury or MOG p35-55 in the absence of crush injury. MOG p35-55 was administered with IFA. Surviving optic nerve fibers were monitored by retrograde labeling of RGCs. The number of RGCs in rats injected with PBS or MOG p35-55 was expressed as a percentage of the total number of neurons in rats injected with MOG p35-55 in the absence of crush injury.
Rats were injected intradermally in the footpads with MOG p35-55 (50 μg/animal) and IFA, or PBS, ten days prior to optic nerve crush injury. RGCs were assessed two weeks after injury using retrograde labeling as described above. The number of RGCs in rats injected with PBS or MOG p35-55 was expressed as a percentage of the total number of neurons in rats injected with MOG p35-55 in the absence of crush injury.

contused spinal cord = assay: Spinal cord contusion, post-traumatic immunization with Nogo p472, BBB hindlimb motor score; type: in vivo, SPD rats
[2] = tested on: retinal ganglion cells (RGCs); assay: Optic nerve crush injury after oral MBP, retrograde labeling of RGCs; type: in vivo, Lewis rats; conditions: fed antigen from ten days before mild crush injury (FIG. 14)
Description: MBP (Sigma, Israel) (1 mg in 0.5 ml saline) was administered orally to adult rats by gavage using a blunt needle. MBP was administered 5 times, i.e., every third day beginning two weeks prior to optic nerve crush injury. Surviving optic nerve fibers were monitored by retrograde labeling of RGCs. The number of RGCs in treated rats was expressed as a percentage of the total number of neurons in untreated rats following the injury.
Lewis rats were fed 1 mg MBP daily, or every other day, or 4 times a day at two-hour intervals for five consecutive days. Control animals were given PBS or the non-self antigen OVA Sigma, Israel). Ten days after the start of MBP ingestion, the right optic nerves were subjected to a calibrated mild crush injury. Two weeks later the RGCs were retrogradely labelled by application of the fluorescent lipophilic dye 4-Di-10-Asp(Molecular Probes Europe BV, Netherlands), distally to the site of injury, as described. […] Six days after dye application, the retina was detached from the eye, prepared as a flattened whole mount in 4% paraformaldehyde solution, and examined for labeled RGCs by fluorescence microscopy. RGCs were counted from three different regions in the retina. The results are expressed as normalized percentage of each retina to untreated injured animal mean of the same experiment. […]

For “MOG p35-55: 21-mer peptide based on amino acids 35-55 of MOG, chemically synthesized, given with IFA (MEVGWYRSPFSRVVHLYRNGK; given with IFA; UniProt Q61885 63-83, looked up, fragment)”, the “number of labeled RGCs compared to animals receiving PBS” value [1] was “about 12.5 fold”.

In the case of “p472: 18-mer peptide, residues 623-640 of rat Nogo-A (SEQ ID NO:19), emulsified in CFA (SYDSIKLEPENPPPYEEA; emulsified in CFA; listed as Rattus norvegicus)”, the “overall functional recovery compared to control rats (PBS in CFA or PBS only)” value (contused spinal cord; 100 μg/rat in CFA s.c. after contusion, female and male rats, P<0.01) is reported as “significantly improved”, the “day from which hind limb locomotion was significantly better than PBS-treated controls” value (contused spinal cord; female rats, 50 mm, boosted one week after injury) is reported as 25 days and the “day after injury from which locomotor performance was significantly better than PBS+CFA-treated controls” value (contused spinal cord; male rats) is reported as 11 days.

B1: OVA: non-self antigen ovalbumin (Sigma) fed to control rats (protein, UniProt P01012 2-386, looked up)
Ovalbumin: GSIGAASMEFCFDVFKELKVHHANENIFYCPIAIMSALAMVYLGAKDSTRTQINKVVRFDKLPGFGDSIEAQCGTSVNVHSSLRDILNQITKPNDVYSFSLASRLYAEERYPILPEYLQCVKELYRGGLEPINFQTAADQARELINSWVESQTNGIIRNVLQPSSVDSQTAMVLVNAIVFKGLWEKAFKDEDTQAMPFRVTEQESKPVQMMYQIGLFRVASMASEKMKILELPFASGTMSMLVLLPDEVSGLEQLESIINFEKLTEWTSSNVMEERKIKVYLPRMKMEEKYNLTSVLMAMGITDVFSSSANLSGISSAESLKISQAVHAAHAEINEAGREVVGSAEAGVDAASVSEEFRADHPFLFCIKHIATNAVLFFGRCVSP
For B1, the “number of surviving RGCs two weeks after optic nerve injury vs control group” value [2] was “ns”.
